Data published in patent US12522596B2, “Compounds as GLP-1R agonists” (Terns Pharmaceuticals, Inc., priority 2021, dated 2026).
“And” between values parts separate entries of the source, which are not always exact repeats. Identical values can stand only once. Like-named read-outs stand apart in the source and are kept apart here. Marks after values point to notes of the source that are not given here.

Test: Pharmacokinetics in hGLP-1R mice after oral dosing
Format: in vivo, male C57BL/6J hGLP-1R mouse
Experimental: IPGTT (120 min)—PK bleeding: 40 μL blood samples (all treatment groups) were collected from mice under the jaw at IPGTT-120 min after blood glucose measurement into pre-chilled EDTA-2K tubes. Blood samples were processed for plasma by centrifugation at 4° C., 3200×g for 10 min. 15 μL plasma was stored at −80° C. for PK analysis. From 4 mice in Group 7 of the PD cohort, whole brain was collected after blood is harvested at 120 min post dose, rinsed with saline and patted dry and placed into a pre-weighed tube and stored at −80° C. collected for PK analysis.
PK bleeding group design is described in Table 9.
PK bleeding: 30 μL blood was collected at 0.25, 0.5, 1, 2, 4, and 8 h. Blood samples were processed for plasma by centrifugation at 4° C., 3200×g for 10 min. 12 μL plasma was collected at −80° C. for further analysis. From 3 mice in Group 7 of the PK cohort, whole brain was collected after blood is harvested at 8 hr post dose, rinsed with saline and patted dry and placed into a pre-weighed tube and stored at −80° C. collected for PK analysis.
For plasma: An aliquot of 3 μL sample was protein precipitated with 60 μL internal standard (100 ng/mL Labetalol & 100 ng/ml Dexamethasone & 100 ng/ml Tolbutamide & 100 ng/mL Verapamil & 100 ng/ml Glyburide & 100 ng/ml Celecoxib in ACN) and then the mixture was vortex-mixed for 10 min at 800 rpm and centrifuged for 15 min at 3220×g, 4° C.
The linear/log trapezoidal rule was applied in obtaining the PK parameters. Individual plasma concentration values that were below the lower limit of quantitation (LOQ) were excluded from the PK parameter calculation. The nominal dose levels and nominal sampling times were used in the calculation of all pharmacokinetic parameters.

[1] = hGLP-1R mouse plasma, PO 0.3 mg/kg, individual mice, 0.3 mg/kg
[2] = hGLP-1R mouse plasma, PO 0.3 mg/kg, mean
[3] = hGLP-1R mouse plasma, PO 1 mg/kg, individual mice, 1 mg/kg
[4] = hGLP-1R mouse plasma, PO 1 mg/kg, mean

With N#Cc1ccc(COc2cccc(C3CCN(Cc4nc5ccc(C(=O)O)cc5n4C[C@@H]4CCO4)CC3)n2)c(F)c1 [Reference Compound A, reference compound] the “increase of exposure with dose (dose proportionality)” value (hGLP-1R mice, PO, Reference Compound A 0.3-1 mg/kg, Compound 2 0.3-3 mg/kg) was “approximately dose proportional manner”, the Concentration (hGLP-1R mouse plasma collected at 120 min (IPGTT cohort), PO 0.3 mg/kg, individual animals, 0.3 mg/kg) was 8.61 ng/mL and 8.10 ng/mL and 5.55 ng/mL and 7.19 ng/mL and 6.60 ng/mL and 6.14 ng/mL and the Concentration (hGLP-1R mouse plasma collected at 120 min (IPGTT cohort), PO 1 mg/kg, individual animals, 1 mg/kg) was 29.7 ng/mL and 31.0 ng/mL and 17.9 ng/mL and 14.2 ng/mL and 15.9 ng/mL and 14.9 ng/mL and 26.5 ng/mL. For the same compound, the Concentration (hGLP-1R mouse plasma, PO 0.3 mg/kg, 0.25 h, individual animals, 0.3 mg/kg) was 11.2 ng/mL and 16.7 ng/mL and 46.8 ng/mL, the Concentration (hGLP-1R mouse plasma, PO 0.3 mg/kg, 0.5 h, individual animals, 0.3 mg/kg) was 17.6 ng/mL and 14.6 ng/mL and the Concentration (hGLP-1R mouse plasma, PO 0.3 mg/kg, 1 h, individual animals, 0.3 mg/kg) was 13.4 ng/mL and 23.5 ng/mL and 11.1 ng/mL. The Concentration (hGLP-1R mouse plasma, PO 0.3 mg/kg, 2 h, individual animals, 0.3 mg/kg) was 2.43 ng/mL and 4.91 ng/mL and 2.76 ng/mL, the Concentration (hGLP-1R mouse plasma, PO 0.3 mg/kg, 4 h, individual animals, 0.3 mg/kg) was “BQL” and the Concentration (hGLP-1R mouse plasma, PO 0.3 mg/kg, 8 h, individual animals) was “BQL”. The Tlast (hGLP-1R mouse plasma, PO 0.3 mg/kg, individual mice) was 2.00 h, the AUC0-inf [1] was 22.9 ng·h/mL and 40.5 ng·h/mL and 19.4 ng·h/mL and the AUC0-last [1] was 21.2 ng·h/mL and 35.4 ng·h/mL and 17.0 ng·h/mL. The AUCExtra [1] was 7.39% and 12.7% and 12.4%, the AUMCExtra [1] was 21.1% and 35.8% and 32.0% and the Cmax [1] was 19.6 ng/mL and 46.8 ng/mL and 14.6 ng/mL. For the same compound, the MRT0-inf [1] was 1.08 h and 1.11 h, the MRT0-last [1] was 0.797 h and 0.861 h and the T1/2 [1] was 0.727* h and 0.602 h. It also gave a Tmax [1] of 0.250 h, an AUCExtra [2] of 10.8% and an AUMCExtra [2] of 29.6%. The Tlast [2] was 2.00 h, the Concentration (hGLP-1R mouse plasma, PO 1 mg/kg, 0.25 h, individual animals, 1 mg/kg) was 31.9 ng/mL and 31.8 ng/mL and the Concentration (hGLP-1R mouse plasma, PO 1 mg/kg, 0.5 h, individual animals, 1 mg/kg) was 40.2 ng/mL and 41.2 ng/mL. For the same compound, the Concentration (hGLP-1R mouse plasma, PO 1 mg/kg, 1 h, individual animals, 1 mg/kg) was 48.7 ng/mL and 23.7 ng/mL and 46.0 ng/mL, the Concentration (hGLP-1R mouse plasma, PO 1 mg/kg, 2 h, individual animals, 1 mg/kg) was 22.4 ng/mL and 5.72 ng/mL and 15.4 ng/mL and the Concentration (hGLP-1R mouse plasma, PO 1 mg/kg, 4 h, individual animals, 1 mg/kg) was “BQL and 3.21 ng/mL”. The Concentration (hGLP-1R mouse plasma, PO 1 mg/kg, 8 h, individual animals) was “BQL”, the AUC0-inf [3] was 86.4 ng·h/mL and 89.9 ng·h/mL and the AUC0-last [3] was 68.7 ng·h/mL and 86.7 ng·h/mL. For the same compound, the AUCExtra [3] was 3.91% and 20.5% and 3.54%, the AUMCExtra [3] was 13.8% and 58.3% and 18.2% and the Cmax [3] was 40.2 ng/mL and 46.0 ng/mL. The MRT0-inf [3] was 1.45 h and 4.55 h and 2.05 h, the MRT0-last [3] was 2.39 h and 1.74 h and the T1/2 [3] was 0.791 h and 3.42* h and 1.77* h. The Tlast [3] was 4.00 h and 8.00 h (2×), the Tmax [3] was 1.00 h and the AUCExtra [4] was 9.32%. It also gave an AUMCExtra [4] of 30.1%, an AUC(0-t) (male, C57BL/6J hGLP-1R, mouse, plasma, po, 0.3 mg/kg, hGLP-1R mice, total, PO 0.3 mg/kg, read-out: AUClast Mean) of 24.5 ng·h/mL and a Cmax (male, C57BL/6J hGLP-1R, mouse, plasma, po, 0.3 mg/kg, hGLP-1R mice, total, PO 0.3 mg/kg, read-out: Cmax Mean) of 27 ng/mL. It also gave a half-life (male, C57BL/6J hGLP-1R, mouse, plasma, po, 0.3 mg/kg, hGLP-1R mice, total, PO 0.3 mg/kg, read-out: T1/2 (converted)) of 0.604 h, a Tmax (male, C57BL/6J hGLP-1R, mouse, plasma, po, 0.3 mg/kg, hGLP-1R mice, total, PO 0.3 mg/kg, read-out: Tmax Median) of 0.5 h and a concentration at 120 min (male, C57BL/6J hGLP-1R, mouse, plasma, po, 0.3 mg/kg, hGLP-1R mouse plasma collected at 120 min (IPGTT cohort), PO 0.3 mg/kg, individual animals, read-out: Concentration) of 7.91 ng/mL.
